Experiments:
[1] = target: T1, β5 subunit of the human immunoproteasome (IPS) (Homo sapiens, UniProt P28062); assay: β5 inhibition assay, human immunoproteasome (Suc-LLVY-AMC); assay type: biochemical; settings: IC50 class, Suc-LLVY-AMC substrate
T1 construct: purchased Boston Biochem E-370
Summary of the method: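 Human immunoproteasome (1 nM final) was preincubated 10 min at RT with compound in 100 mM HEPES pH 7.5, 50 mM NaCl, 0.02% SDS, 1 mM DTT. Suc-LLVY-AMC (22.6 μM final) was then added for 4 h at RT in the dark. After stopping with 1 μM bortezomib, AMC fluorescence was read (ex 355/em 460 nm).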

[2] = system: A549 (human lung carcinoma cell line); assay: Glo assay of A549 cells (Table 3; ProteasomeGlo plating scheme); assay type: cell-based; settings: Homo sapiens; A549 cells; read-out: PGLo A549
Summary of the method: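 Compound treatment lasts 105 minutes at 37° C. under 5% CO2. Suc-LLVY-Glo substrate premixed with detection reagent (60 min at room temperature) is then added directly to the cells, and luminescence after 10-15 min in the dark gives the IC50 in nM.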

Row | IC50 [1] [nM] | IC50 [2] [nM] | SMILES
1 | < 100 | < 100 | COC(=O)N(CC1NC(=O)[C@@H](NC(=O)OCc2ccccc2)CC(=O)N2CCCC(CCOc3ccc(C)c(c3)CNC1=O)C2)c1ccccc1 (stereo partly drawn) [Compound 513, methyl (((12R)-12-(((benzyloxy)carbonyl)amino)-5^4-methyl-8,11,14-trioxo-4-oxa-7,10-diaza-1(3,1)-piperidina-5(1,3)-benzenacyclotetradecaphane-9-yl)methyl)(phenyl)carbamate]
2 | < 100 | < 100 | Cc1ccc2cc1CNC(=O)[C@H](CCc1ccccc1)NC(=O)[C@@H](NC(=O)OCc1ccccc1)CCCC(=O)N1CCC(CCO2)C1 (stereo partly drawn) [Compound 352, benzyl ((9S, 12S)-5^4-methyl-8,11,16-trioxo-9-phenethyl-4-oxa-7,10-diaza-1(3,1)-pyrrolidina-5(1,3)-benzenacyclohexadecaphane-12-yl)carbamate]
3 | < 100 | < 100 | Cc1ccc2cc1CNC(=O)[C@H](CCc1ccccc1)NC(=O)[C@@H](NC(=O)Cc1csc(N)n1)CC(=O)N1CCCC(CCO2)C1 (stereo partly drawn) [Compound 302, 2-(2-aminothiazol-4-yl)-N-((9S,12S)-5^4-methyl-8,11,14-trioxo-9-phenethyl-4-oxa-7,10-diaza-1(3,1)-piperidina-5(1,3)-benzenacyclotetradecaphane-12-yl)acetamide]
4 | < 100 | 100 to 500 | CCOC(C(=O)N[C@H]1CC(=O)N2CCCC(CCOc3ccc(C)c(c3)CNC(=O)[C@H](CCc3ccccc3)NC1=O)C2)c1ccc(N)cc1 (stereo partly drawn) [Compound 345, 2-(4-aminophenyl)-2-ethoxy-N-((9S,12S)-5^4-methyl-8,11,14-trioxo-9-phenethyl-4-oxa-7,10-diaza-1(3,1)-piperidina-5(1,3)-benzenacyclotetradecaphane-12-yl)acetamide]
5 | < 100 | < 100 | Cc1ccc2cc1CNC(=O)C(CCc1ccncc1)NC(=O)[C@@H](NC(=O)OCc1ccccc1)CC(=O)N1CCCC(CCO2)C1 (stereo partly drawn) [Compound 336, benzyl ((12S)-5^4-methyl-8,11,14-trioxo-9-(2-(pyridin-4-yl)ethyl)-4-oxa-7,10-diaza-1(3,1)-piperidina-5(1,3)-benzenacyclotetradecaphane-12-yl)carbamate]
6 | < 100 | < 100 | Cc1ccc2cc1CNC(=O)C(CCc1ccc(S(=O)(=O)O)cc1)NC(=O)[C@@H](NC(=O)OCc1ccccc1)CC(=O)N1CCCC(CCO2)C1 (stereo partly drawn) [Compound 509, 4-(2-((12S)-12-(((benzyloxy)carbonyl)amino)-5^4-methyl-8,11,14-trioxo-4-oxa-7,10-diaza-1(3,1)-piperidina-5(1,3)-benzenacyclotetradecaphane-9-yl)ethyl)benzenesulfonic acid]
7 | < 100 | < 100 | CC(=O)N[C@H]1CC(=O)N2CCCC(CCOc3ccc(C)c(c3)CNC(=O)C(c3cnn(CCOCCOCCOCCN)c3)NC1=O)C2 (stereo partly drawn) [Compound 566, N-((12S)-9-(1-(2-(2-(2-(2-aminoethoxy)ethoxy)ethoxy)ethyl)-1H-pyrazol-4-yl)-5^4-methyl-8,11,14-trioxo-4-oxa-7,10-diaza-1(3,1)-piperidina-5(1,3)-benzenacyclotetradecaphane-12-yl)acetamide]
8 | < 100 | < 100 | Cc1ccc2cc1CNC(=O)C(CCc1cnccn1)NC(=O)[C@@H](NC(=O)Cc1ccc(N)cc1F)CC(=O)N1CCCC(CCO2)C1 (stereo partly drawn) [Compound 372, 2-(4-amino-2-fluorophenyl)-N-((9S,12S)-5^4-methyl-8,11,14-trioxo-9-(2-(pyrazin-2-yl)ethyl)-4-oxa-7,10-diaza-1(3,1)-piperidina-5(1,3)-benzenacyclotetradecaphane-12-yl) acetamide]
9 | < 100 | < 100 | Cc1ccc2cc1CNC(=O)[C@H](CCc1ccccc1)NC(=O)[C@@H](NC(=O)Cc1cnc(N)s1)CC(=O)N1CCCC(CCO2)C1 (stereo partly drawn) [Compound 311, 2-(2-aminothiazol-5-yl)-N-((9S,12S)-5^4-methyl-8,11,14-trioxo-9-phenethyl-4-oxa-7,10-diaza-1(3,1)-piperidina-5(1,3)-benzenacyclotetradecaphane-12-yl)acetamide]
10 | < 100 | 100 to 500 | CC(=O)N[C@H]1CC(=O)N2CCCC(CCOc3ccc(C)c(c3)CNC(=O)C(c3cn[nH]c3)NC1=O)C2 (stereo partly drawn) [Compound 562, N-((12S)-5^4-methyl-8,11,14-trioxo-9-(1H-pyrazol-4-yl)-4-oxa-7,10-diaza-1(3,1)-piperidina-5(1,3)-benzenacyclotetradecaphane-12-yl)acetamide]
11 | < 100 | < 100 | CC(=O)N[C@H]1CC(=O)N2CCCC(CCOc3ccc(C)c(c3)CNC(=O)C(CCc3nccs3)NC1=O)C2 (stereo partly drawn) [Compound 563, N-((12S)-5^4-methyl-8,11,14-trioxo-9-(2-(thiazol-2-yl)ethyl)-4-oxa-7,10-diaza-1(3,1)-piperidina-5(1,3)-benzenacyclotetradecaphane-12-yl)acetamide]
12 | < 100 | < 100 | Cc1ccc2cc1CNC(=O)[C@H](CCc1ccccc1)NC(=O)[C@@H](NC(=O)Cc1nnc(N)s1)CC(=O)N1CCCC(CCO2)C1 (stereo partly drawn) [Compound 310, 2-(5-amino-1,3,4-thiadiazol-2-yl)-N-((9S,12S)-54-methyl-8,11,14-trioxo-9-phenethyl-4-oxa-7,10-diaza-1(3,1)-piperidina-5(1,3)-benzenacyclotetradecaphane-12-yl)acetamide]
13 | < 100 | > 5000 | Cc1cc2cc(c1C)CNC(=O)C(c1cnn(C)c1)NC(=O)CCC(=O)N1CCCC(CCO2)C1 (centres unmarked) [Compound 355, 5^4,5^5-dimethyl-9-(1-methyl-1H-pyrazol-4-yl)-4-oxa-7,10-diaza-1(3,1)-piperidina-5(1,3)-benzenacyclotetradecaphane-8,11,14-trione]
14 | < 100 | 100 to 500 | CC(=O)N[C@H]1CC(=O)N2CCCC(CCOc3ccc(C)c(c3)CNC(=O)C(c3cnn(C)c3)NC1=O)C2 (stereo partly drawn) [Compound 552, N-((12S)-5^4-methyl-9-(1-methyl-1H-pyrazol-4-yl)-8,11,14-trioxo-4-oxa-7,10-diaza-1(3,1)-piperidina-5(1,3)-benzenacyclotetradecaphane-12-yl)acetamide]
15 | < 100 | < 100 | CC(=O)N[C@H]1CC(=O)N2CCCC(CCOc3ccc(C)c(c3)CNC(=O)C(c3cnn(CCC(=O)O)c3)NC1=O)C2 (stereo partly drawn) [Compound 567, 3-(4-((12S)-12-acetamido-5^4-methyl-8,11,14-trioxo-4-oxa-7,10-diaza-1(3,1)-piperidina-5(1,3)-benzenacyclotetradecaphane-9-yl)-1H-pyrazol-1-yl)propanoic acid]
16 | < 100 | < 100 | Cc1ccc2cc1CNC(=O)[C@H](CCc1ccccc1)NC(=O)[C@@H](NC(=O)C(C)c1ccc(N)cc1)CC(=O)N1CCCC(CCO2)C1 (stereo partly drawn) [Compound 309, 2-(4-aminophenyl)-N-((9S,12S)-5^4-methyl-8,11,14-trioxo-9-phenethyl-4-oxa-7,10-diaza-1(3,1)-piperidina-5(1,3)-benzenacyclotetradecaphane-12-yl)propanamide]
17 | < 100 | < 100 | Cc1ccc2cc1CNC(=O)[C@H](CCc1ccccc1)NC(=O)[C@@H](NC(=O)Cc1ccccc1C)CC(=O)N1CCCC(CCO2)C1 (stereo partly drawn) [Compound 373, N-((9S,12S)-5^4-methyl-8,11,14-trioxo-9-phenethyl-4-oxa-7,10-diaza-1(3,1)-piperidina-5(1,3)-benzenacyclotetradecaphane-12-yl)-2-(o-tolyl)acetamide]
18 | < 100 | < 100 | Cc1ccc2cc1CNC(=O)[C@H](CCc1ccccc1)NC(=O)[C@@H](NC(=O)c1nc3ccccc3[nH]1)CC(=O)N1CCCC(CCO2)C1 (stereo partly drawn) [Compound 31, N-((9S,12S)-5^4-methyl-8,11,14-trioxo-9-phenethyl-4-oxa-7,10-diaza-1(3,1)-piperidina-5(1,3)-benzenacyclotetradecaphane-12-yl)-1H-benzo[d] imidazole-2-carboxamide]
19 | < 100 | < 100 | CC(=O)N[C@H]1CC(=O)N2CCCC(CCOc3cccc(c3)CNC(=O)[C@H](CCc3ccccc3)NC1=O)C2 (stereo partly drawn) [Compound 364, N-((9S,12S)-8,11,14-trioxo-9-phenethyl-4-oxa-7,10-diaza-1(3,1)-piperidina-5(1,3)-benzenacyclotetradecaphane-12-yl)acetamide]
20 | < 100 | < 100 | Cc1ccc2cc1CNC(=O)[C@@H](CCc1ccccc1)NC(=O)[C@H](NC(=O)C(C)(C)CS)CC(=O)N1CCCC(CCO2)C1 (stereo partly drawn) [Compound 348, 3-mercapto-2,2-dimethyl-N-((9S,12S)-5^4-methyl-8,11,14-trioxo-9-phenethyl-4-oxa-7,10-diaza-1(3,1)-piperidina-5(1,3)-benzenacyclotetradecaphane-12-yl)propanamide]
21 | < 100 | < 100 | Cc1ccc2cc1CNC(=O)[C@H](CCc1ccccc1)NC(=O)[C@@H](NC(=O)CC(C)(C)C)CC(=O)N1CCCC(CCO2)C1 (stereo partly drawn) [Compound 28, 3,3-dimethyl-N-((9S,12S)-5^4-methyl-8,11,14-trioxo-9-phenethyl-4-oxa-7,10-diaza-1(3,1)-piperidina-5(1,3)-benzenacyclotetradecaphane-12-yl)butanamide]

Row | SMILES | IC50 [1] [nM] | IC50 [2] [nM]
22 | Cc1ccc2cc1CNC(=O)[C@H](CCc1ccccc1)NC(=O)[C@@H](NC(=O)OCc1ccccc1)CC(=O)N1CC(CCO2)CC2CCCCC21 (stereo partly drawn) [Compound 314, benzyl ((9S,12S)-5^4-methyl-8,11,14-trioxo-9-phenethyl-11,12,13,14,14a,15,16,17,18,18a-decahydro-4-oxa-7,10-diaza-1(3,1)-quinolina-5(1,3)-benzenacyclotetradecaphane-12-yl)carbamate] | < 100 | < 100

— US20240415819A1, “MACROCYCLIC COMPOUNDS AS PROTEASOME SUBUNIT BETA TYPE-5 INHIBITORS” (Lead Discovery Center GmbH, priority 2021, published 2024)
